Test results taken from PubChem BioAssay AID588472 (The Scripps Research Institute Molecular Screening Center, 2011).
pIC50: −log10 of the molar value.

Legend:
Assay in all cases: PubChem AID 588472; call rule not given here
[1] = molecular target: Protein-arginine deiminase type-2 (Homo sapiens) (UniProt Q9Y2J8); details: recombinant PAD1-4, colorimetric citrullination assay; PAD2
[2] = molecular target: Protein-arginine deiminase type-3 (Homo sapiens) (UniProt Q9ULW8); details: recombinant PAD1-4, colorimetric citrullination assay; PAD3
[3] = molecular target: Protein-arginine deiminase type-4 (Homo sapiens) (UniProt Q9UM07); details: recombinant PAD1-4, colorimetric citrullination assay; PAD4
[4] = molecular target: Protein-arginine deiminase type-1 (Homo sapiens) (UniProt Q9ULC6); details: recombinant PAD1-4, colorimetric citrullination assay; PAD1

Measured: pIC50

Protein-arginine deiminase type-4 (Homo sapiens), sequence (Q9UM07 whole entry, looked up): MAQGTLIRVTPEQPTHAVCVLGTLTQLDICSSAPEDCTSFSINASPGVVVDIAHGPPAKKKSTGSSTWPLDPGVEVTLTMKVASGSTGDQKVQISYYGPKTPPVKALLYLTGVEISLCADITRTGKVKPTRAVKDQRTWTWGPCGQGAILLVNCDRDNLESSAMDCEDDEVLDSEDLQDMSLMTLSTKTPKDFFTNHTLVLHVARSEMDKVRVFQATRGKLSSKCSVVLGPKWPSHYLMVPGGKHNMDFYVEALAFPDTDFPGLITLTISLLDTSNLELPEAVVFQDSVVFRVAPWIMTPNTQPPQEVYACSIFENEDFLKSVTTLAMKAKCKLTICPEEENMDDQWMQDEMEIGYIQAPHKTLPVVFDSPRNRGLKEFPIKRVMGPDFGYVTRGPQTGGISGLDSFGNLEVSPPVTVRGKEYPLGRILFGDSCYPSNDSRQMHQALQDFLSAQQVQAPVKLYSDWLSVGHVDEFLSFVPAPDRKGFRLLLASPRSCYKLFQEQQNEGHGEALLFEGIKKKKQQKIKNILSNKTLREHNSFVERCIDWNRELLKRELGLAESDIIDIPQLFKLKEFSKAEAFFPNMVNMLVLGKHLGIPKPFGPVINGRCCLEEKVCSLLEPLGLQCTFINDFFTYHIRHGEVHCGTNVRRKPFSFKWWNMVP
Protein-arginine deiminase type-2 (Homo sapiens), sequence (Q9Y2J8 whole entry, looked up): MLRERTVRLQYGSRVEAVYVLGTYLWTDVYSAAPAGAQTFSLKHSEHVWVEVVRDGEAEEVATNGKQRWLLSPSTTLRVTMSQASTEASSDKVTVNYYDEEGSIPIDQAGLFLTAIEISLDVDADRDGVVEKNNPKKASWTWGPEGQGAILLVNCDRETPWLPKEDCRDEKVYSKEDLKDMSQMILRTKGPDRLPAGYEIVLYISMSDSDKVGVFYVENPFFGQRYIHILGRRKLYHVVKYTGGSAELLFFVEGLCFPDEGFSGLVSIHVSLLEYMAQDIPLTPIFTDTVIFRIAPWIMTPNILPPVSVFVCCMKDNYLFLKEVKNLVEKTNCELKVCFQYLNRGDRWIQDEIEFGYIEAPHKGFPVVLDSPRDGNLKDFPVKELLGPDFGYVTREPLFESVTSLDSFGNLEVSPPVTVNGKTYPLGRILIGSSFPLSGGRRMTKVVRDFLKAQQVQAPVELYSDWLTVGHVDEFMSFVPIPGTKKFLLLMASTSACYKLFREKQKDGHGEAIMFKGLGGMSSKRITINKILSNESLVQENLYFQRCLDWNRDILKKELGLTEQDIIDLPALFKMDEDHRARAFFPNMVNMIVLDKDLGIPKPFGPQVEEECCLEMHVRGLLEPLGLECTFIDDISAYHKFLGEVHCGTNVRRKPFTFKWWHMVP
Protein-arginine deiminase type-1 (Homo sapiens), sequence (Q9ULC6 whole entry, looked up): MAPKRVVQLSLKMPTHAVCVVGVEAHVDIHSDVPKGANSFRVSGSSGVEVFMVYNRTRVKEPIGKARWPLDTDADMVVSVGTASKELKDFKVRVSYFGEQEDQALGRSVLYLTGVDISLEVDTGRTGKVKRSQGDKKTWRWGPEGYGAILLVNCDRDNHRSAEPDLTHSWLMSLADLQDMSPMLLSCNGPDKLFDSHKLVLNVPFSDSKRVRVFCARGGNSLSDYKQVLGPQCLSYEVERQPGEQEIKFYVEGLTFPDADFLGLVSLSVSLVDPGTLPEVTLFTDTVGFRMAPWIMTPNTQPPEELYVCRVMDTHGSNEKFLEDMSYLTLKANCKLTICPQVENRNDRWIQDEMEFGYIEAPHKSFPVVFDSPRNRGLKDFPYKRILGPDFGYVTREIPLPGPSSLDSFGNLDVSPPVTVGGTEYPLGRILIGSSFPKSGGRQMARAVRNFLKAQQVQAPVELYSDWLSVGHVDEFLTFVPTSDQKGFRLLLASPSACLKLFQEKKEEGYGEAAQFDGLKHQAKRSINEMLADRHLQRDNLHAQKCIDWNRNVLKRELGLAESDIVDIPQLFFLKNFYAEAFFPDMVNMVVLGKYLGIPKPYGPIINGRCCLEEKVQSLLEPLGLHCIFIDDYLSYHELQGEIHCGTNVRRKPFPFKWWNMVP
Protein-arginine deiminase type-3 (Homo sapiens), sequence (Q9ULW8 whole entry, looked up): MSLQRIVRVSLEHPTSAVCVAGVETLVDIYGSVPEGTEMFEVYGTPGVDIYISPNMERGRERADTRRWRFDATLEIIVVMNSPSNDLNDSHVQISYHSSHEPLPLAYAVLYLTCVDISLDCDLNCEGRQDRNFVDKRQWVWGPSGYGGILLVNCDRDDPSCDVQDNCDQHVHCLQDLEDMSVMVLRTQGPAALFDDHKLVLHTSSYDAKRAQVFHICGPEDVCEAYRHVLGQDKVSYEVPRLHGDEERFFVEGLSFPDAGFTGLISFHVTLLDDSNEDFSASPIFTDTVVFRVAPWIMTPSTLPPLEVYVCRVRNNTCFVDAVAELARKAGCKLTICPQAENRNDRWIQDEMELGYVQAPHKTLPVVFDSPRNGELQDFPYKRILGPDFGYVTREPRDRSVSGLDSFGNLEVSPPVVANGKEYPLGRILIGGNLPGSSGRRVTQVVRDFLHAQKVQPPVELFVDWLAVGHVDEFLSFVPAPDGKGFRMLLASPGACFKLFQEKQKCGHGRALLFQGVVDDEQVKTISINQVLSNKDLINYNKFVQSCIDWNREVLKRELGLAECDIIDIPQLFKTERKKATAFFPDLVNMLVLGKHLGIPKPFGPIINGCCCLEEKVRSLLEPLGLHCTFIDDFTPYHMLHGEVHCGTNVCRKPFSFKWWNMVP

NC1=CC(=O)c2cccnc2C1=O
active: [1] 6.13 | [2] 6.77 | [3] 6.00 | [4] 6.01
